Test system: Acinetobacter baumannii (Ab23)
Experiment: MIC shift assay of antibiotics (broth microdilution)
Type: cell-based
Settings: compound concentration 2 μM; fold shift of colistin MIC; nc = no changeover or no shift
Description: Minimum inhibitory concentration (MIC) shift assays were performed to determine if the test compounds could alter the MIC of existing antibacterial drugs (e.g., ciprofloxacin and colistin) for E. coli, Acinetobacter baumannii, Klebsiella pneumoniae, Pseudomonas aeruginosa, and Enterobacter cloacae. The MIC shift assay is based on the standard broth microdilution MIC determination protocol of Wiegand et al, Nat Protoc. 3(2):163-75 (2008), with slight modifications that allow for the screening of up to seven test compounds in a single plate.
On the day before an assay, bacteria were grown overnight in cation-adjusted Mueller Hinton broth (CAMHB; Teknova, Hollister, Calif.) at 37° C. in an orbital shaker and sub-cultured at a 1:200 dilution the following morning. The cells were grown to OD600=0.5 to 0.8 and then diluted to OD600=0.01. From a serial dilution of each antibiotic at (50 μL of 2× concentrated stock solutions) several concentrations were added to the wells of a sterile, transparent round-bottom 96-well plate (Phenix Research Products, Candler, N.C.), and diluted cells (50 μL) were added to the plates for a starting OD600 of 0.005. […] A row of wells lacking test compound but containing the antibiotic was used to determine the MIC of that antibiotic alone. A column of wells lacking both antibiotic and test compound served as a growth control, and an additional column containing only CAMHB was included as a sterile blank control.
The plates were incubated for 18 to 20 h at 37° C. in an orbital shaker, and the cell density (OD600) was determined the following day in a microplate reader (PolarStar Optima, BMG Labtech). The MIC shift was determined by comparing the MIC of the antibiotic alone to the MIC of the antibiotic plus test compound.

Molecule | colistin MIC shift, Ab23 at (compd concentration)
CNCCCN(C)c1nc(-c2cc(-c3ccccc3)cc(C(F)(F)F)c2)nc2c(C)cccc12 [compound 349] | 8-16x
CN(C)CCCNc1nc(-c2cccc(-c3ccccc3Cl)c2)nc2c(Cl)cccc12 [compound 351] | 8-16x
FC(F)(F)c1ccc2c(-c3ccc4ccccc4c3)n[nH]c2c1 [compound 540] | 4x
CC(C)(c1c[nH]c2cc(Cl)c(Cl)cc12)c1c[nH]c2cc(Cl)c(Cl)cc12 [compound 440] | ≧16x
Fc1ccc2c(/C=C/c3cccc(Cl)c3Cl)c[nH]c2c1 [compound 383] | ≧16x (2μM)
Clc1ccc(-c2c[nH]c3cc(Cl)c(Cl)cc23)cc1Cl [compound 432] | 8x
Cc1cccc2c(NCCCN(C)C)nc(-c3cc(-c4ccncc4)cc(C(F)(F)F)c3)nc12 [compound 336] | 8-16x
O=C(Nc1ccc(Cl)c(Cl)c1)c1c[nH]c2cc(Br)ccc12 [compound 424] | 4x
FC(F)(F)c1ccc2c(-c3ccc(Cl)c(Cl)c3)n[nH]c2c1 [compound 441] | ≧16x

Same assay, conditions: compound concentration 4 μM; fold shift of colistin MIC; nc = no changeover or no shift

Molecule | colistin MIC shift, Ab23 at (compd concentration)
COc1ccc2[nH]cc(/C=C/c3ccc(Cl)c(Cl)c3)c2c1 [compound 373] | 8-16x
FC(F)(F)c1cc(Cl)cc(-c2c[nH]c3cc(Cl)c(Cl)cc23)c1 [compound 434] | 32x
Cc1cccc2c(NCCCN)nc(-c3cc(-c4ccccc4Cl)cc(C(F)(F)F)c3)nc12 [524m] | 128x
CN(C)CCCNc1nc(-c2cn(Cc3ccccc3)c3c(Cl)cccc23)nc2c(Br)cccc12 [compound 569] | 8x
Cc1cccc2c(NCCCN)nc(-c3cc(-c4ccccc4)cc(C(F)(F)F)c3)nc12 [524i] | 128x
CCN(CC)CCCC(C)Nc1nc(/C=C/c2ccc(Cl)c(Cl)c2)nc2ccc(Cl)cc12 (racemic) [compound 317] | 2x
Clc1ccc(/C=C/c2c[nH]c3cc(Br)ccc23)cc1Cl [compound 367] | 16-32x
Fc1cc(C(F)(F)F)ccc1-c1n[nH]c2cc(C(F)(F)F)ccc12 [compound 544] | 8x
Clc1ccc2c(-c3cccc(-c4ccccc4)c3)n[nH]c2c1 [compound 526] | 1x
CCN(CC)CCCC(C)Nc1nc(/C=C/c2ccc(Cl)c(Cl)c2)nc2c(C)cccc12 (centres unmarked) [compound 313] | 8x
Cc1cccc2c(NCCCN(C)C)nc(-c3cc(-c4cncnc4)cc(C(F)(F)F)c3)nc12 [524c] | 2x
Cc1cccc2c(N(C)CCCN(C)C)nc(-c3cn(Cc4ccc(Cl)cc4)c4c(Cl)cccc34)nc12 [compound 582] | 8x
CCN(CC)CCCC(C)Nc1nc(-c2cc(Cc3ccccc3)c3ccccc3c2)nc2c(C)cccc12 (centres unmarked) [compound 447] | 4x
CCN(CC)CCCC(C)Nc1nc(/C=C/c2ccc3ccccc3c2)nc2cc(Cl)ccc12 (racemic) [compound 305] | 4x
Cc1cccc2c(NCCCN(C)C)nc(-c3cc(-c4ccc(C(F)(F)F)cc4)cc(C(F)(F)F)c3)nc12 [compound 496] | 16x
Cc1cccc2c(NCCCN(C)C)nc(-c3cccc(-c4ccc(Cl)c(Cl)c4)c3)nc12 [compound 468] | 16-32x
Fc1ccc2c(/C=C/c3ccc(F)c(C(F)(F)F)c3)c[nH]c2c1 [compound 385] | 8-16 x
CCN(CC)CCCC(C)Nc1nc(-c2cc(-c3ccc(C(F)(F)F)cc3)cc(C(F)(F)F)c2)nc2c(C)cccc12 (centres unmarked) [compound 495] | 16x

Molecule | colistin MIC shift, Ab23 at (compd concentration)
CCN(CC)CCCC(C)Nc1nc(-c2cccc(-c3cccc(Cl)c3Cl)c2)nc2c(C)cccc12 (centres unmarked) [compound 483] | 16x
Cc1cccc2c(NCCCN(C)C)nc(-c3cc(-c4cccc(C(F)(F)F)c4)cc(C(F)(F)F)c3)nc12 [compound 494] | 16x
CN1CCN(CCn2cc(/C=C/c3ccc(Cl)c(Cl)c3)c3ccc(F)cc32)CC1 [compound 357] | 4-8x
Fc1ccc2c(/C=C/c3cccc(Cl)c3Cl)c[nH]c2c1 [compound 383] | 32x (4 μM);
(S)-2-amino-1-(5-chloro-3-(3,4-dichlorophenyl)-1H-indol-1-yl)butan-1-one methanesulfonate salt [compound 460] | 32x
Cc1cccc2c(N(C)CCCN(C)C)nc(-c3cc(Br)cc(C(F)(F)F)c3)nc12 [compound 502] | 32x
CN(C)CCCNc1nc(/C=C/c2ccc(F)c(C(F)(F)F)c2)nc2c(C(F)(F)F)cccc12 [compound 332] | 16x
FC(F)(F)c1ccc2c(-c3ccc(Cl)c(Cl)c3)n[nH]c2c1 [compound 541] | 32x
CN(C)CCCNc1nc(-c2cn(Cc3ccccc3)c3c(Cl)cccc23)nc2c(F)cccc12 [compound 565] | 2-4x
CCNCCCC(C)Nc1nc(-c2cn(Cc3ccccc3)c3c(Cl)cccc23)nc2c(C)cccc12 (racemic) [compound 581] | 4x
CCN(CC)CCCC(C)Nc1nc(/C=C/c2ccc(Cl)c(Cl)c2)nc2c(C(F)(F)F)cccc12 (racemic) [compound 312] | 16x
CN(C)CCCNc1nc(-c2cccc(-c3ccccc3)c2)nc2cc(C(F)(F)F)ccc12 [compound 480] | 4x
CCN(CC)CCCC(C)Nc1nc(-c2cccc(-c3cc(F)cc(C(F)(F)F)c3)c2)nc2c(C)cccc12 (centres unmarked) [compound 475] | 4-8x
CCN(CC)CCCC(C)Nc1nc(/C=C/c2ccc(Cl)c(Cl)c2)nc2c(F)cccc12 (racemic) [compound 319] | 2x
Fc1ccc2c(/C=C/c3ccc(C(F)(F)F)c(Cl)c3)c[nH]c2c1 [compound 393] | 16x
COc1ccc2c(NCCCN(C)C)nc(/C=C/c3ccc(Cl)c(Cl)c3)nc2c1C [335a] | 8x
FC(F)(F)c1ccc2c(-c3ccc(Cl)c(Cl)c3)n[nH]c2c1 [compound 390, 3-(3,4-dichlorophenyl)-6-(trifluoromethyl)-1H-indazole] | 16x
CN(C)CCCNc1nc(/C=C/c2ccc(F)c(Cl)c2)nc2c(C(F)(F)F)cccc12 [compound 329] | 8x

Same assay, conditions: compound concentration 8 μM; fold shift of colistin MIC; nc = no changeover or no shift

Molecule | colistin MIC shift, Ab23 at (compd concentration) [x]
CCN(CC)CCCC(C)Nc1nc(/C=C/c2cccc(Br)c2)nc2cc(Cl)ccc12 (racemic) [compound 306] | 4
CN(C)CCn1nc(-c2ccc(Cl)c(Cl)c2)c2ccc(C(F)(F)F)cc21 [559c] | 2

Same assay, conditions: compound concentration 10 μM; fold shift of colistin MIC; nc = no changeover or no shift

Molecule | colistin MIC shift, Ab23 at (compd concentration) [x]
CCN(CC)CCCC(C)Nc1nc(/C=C/c2ccc(Cl)cc2)nc2cc(Cl)ccc12 (racemic) [compound 310] | 8
Fc1cc(-c2cccc(-c3n[nH]c4cc(C(F)(F)F)ccc34)c2)ccc1C(F)(F)F [compound 528] | 8
Fc1cccc(/C=C/c2c[nH]c3cc(F)ccc23)c1 [compound 399] | 8
CN(C)CCCNc1nc(-c2cn(Cc3ccccc3)c3c(Cl)cccc23)nc2ccccc12 [compound 563] | 8
Fc1cc(-c2n[nH]c3cc(C(F)(F)F)ccc23)cc(C(F)(F)F)c1 [compound 550] | 64
Cc1cccc2c(NCCCN3CCOCC3)nc(-c3cc(Br)cc(C(F)(F)F)c3)nc12 [compound 459] | 8
CCN(CC)CCCC(C)Nc1nc(-c2cn(Cc3ccccc3)c3c(Cl)cccc23)nc2c(-c3ccncc3)cccc12 (racemic) [compound 570] | 2
CCN(CC)CCCC(C)Nc1nc(-c2cn(Cc3ccccc3)c3c(Cl)cccc23)nc2ccccc12 (racemic) [compound 562] | 8
Fc1ccc2c(-c3cccc(Cl)c3)n[nH]c2c1 [compound 534] | 1
CCN(CC)CCCC(C)Nc1nc(/C=C/c2ccc(C(=O)OC)cc2)nc2cc(Cl)ccc12 (racemic) [compound 309] | 4
CN(C)CCCNc1nc(-c2cc(Br)cc(C(F)(F)F)c2)nc2c(F)cccc12 [compound 503] | 4
FC(F)(F)c1cccc(-c2cccc(-c3n[nH]c4cc(C(F)(F)F)ccc34)c2)c1 [compound 529] | 8
